For one data set, the target named is 20S proteasome. Description: Inhibition of human 20S proteasome chymotrypsin-like activity using Suc-Leu-Leu-Val-Tyr-AMC as fluorogenic peptide pre-incubated for 10 mins with compound followed by substrate addition for 60 mins by spectrofluorimetric analysis. In kind it is protein-complex assay.
The test system of the next data set is RPMI-8226. Kind of data set: Cytotoxicity against human RPMI-8226 cells assessed as inhibition of cell proliferation incubated for 72 hrs by Cell Titer-Glo luminescence assay. In kind it is functional, cell-based. The following applies: RPMI-8226, 72 h. A general note: Cellular ATP, detected with luciferase, serves as a proxy for viable cell number.
Data set [1] can be described thus: Stability of the compound in stimulated […] fluid at pH 1.2 measured after 1 min. As to conditions: simulated gi fluid, pH 1.2, 1 min. In kind it is ADME.
Data set [2] is described as follows: Stability of the compound in stimulated […] fluid at pH 1.2 measured after 2 hrs. In kind it is ADME. As to conditions: simulated gi fluid, pH 1.2, 2 h.
The nature of data set [3]: Stability of the compound in stimulated […] fluid at pH 1.2 measured after 4 hrs. In kind it is ADME. As to conditions: simulated gi fluid, pH 1.2, 4 h.
Data set [4] in a line: Stability of the compound in stimulated […] fluid at pH 1.2 measured after 8 hrs. In kind it is ADME. As to conditions: simulated gi fluid, pH 1.2, 8 h.
A short description of data set [5]: Stability of the compound in stimulated […] fluid at pH 1.2 measured after 12 hrs. In kind it is ADME. The following applies: simulated gi fluid, pH 1.2, 12 h.
Data set [6] is described as follows: Stability of the compound in stimulated […] fluid at pH 6.8 measured after 1 min. In kind it is ADME. The following applies: simulated intestinal fluid, read-out: Stability.
Data set [7] can be described thus: Stability of the compound in stimulated […] fluid at pH 6.8 measured after 2 hrs. In kind it is ADME. The following applies: simulated intestinal fluid, read-out: Stability.
Data set [8] is described as follows: Stability of the compound in stimulated […] fluid at pH 6.8 measured after 4 hrs. In kind it is ADME. The following applies: simulated intestinal fluid, read-out: Stability.
The nature of data set [9]: Stability of the compound in stimulated […] fluid at pH 6.8 measured after 8 hrs. In kind it is ADME. As to conditions: simulated intestinal fluid, read-out: Stability.
Data set [10] is described as follows: Stability of the compound in stimulated […] fluid at pH 6.8 measured after 12 hrs. As to conditions: simulated intestinal fluid, read-out: Stability. In kind it is ADME.

The structures appear in SMILES notation.

Usually IC50 stands for the concentration at which inhibition is half-maximal. For `CC(C)C[C@H](NC(=O)C(NC(=O)c1cc(C(F)(F)F)ccc1C(F)(F)F)C1CCCC1)B1OC2C3OC(CC3C(=O)O)C2(C)O1` (stereo partly drawn), the half-maximal inhibitory concentration (IC50) on 20S proteasome was found to be 2.4 nM; with RPMI-8226 it was 13.6 nM.
`CC(C)C[C@H](NC(=O)C(NC(=O)c1cc(C(F)(F)F)ccc1C(F)(F)F)C1CC1)B(O)O` (stereo partly drawn): the IC50 on 20S proteasome amounted to 5.6 nM; in the data set on RPMI-8226, 6.7 nM.
For the compound `COc1ccc(OC)c(C(=O)NCC(=O)N[C@@H](CC(C)C)B(O)O)c1`, the IC50 turned out to be 15.8 nM on 20S proteasome and 57.9 nM in the data set on RPMI-8226.
Turning to `CC(C)C[C@H](NC(=O)CNC(=O)c1cc(Cl)ccc1Cl)B1OC2(C)CCC(C(=O)O)CC2(C)O1` (stereo partly drawn), the 50% inhibitory concentration (IC50) was determined as 9.6 nM at 20S proteasome and 5.3 nM in the data set on RPMI-8226. Further, the Stability in data set [1] is reported as 62.06%; in [2], 98.08%; in data set [3], 97.62%; in [4] it was 98.81%; in data set [5], 96.98%. Moreover, the remaining at 1 min in data set [6] is 90.1%. The remaining at 2 h in [7] was 83.7%. The remaining at 4 h in [8] is 91.5%. The remaining at 8 h in data set [9] is 85.7%. In addition, the remaining at 12 h in data set [10] is 78.7%.
`CC(C)C[C@H](NC(=O)CNC(=O)c1cc(Br)ccc1Br)B(O)O`: the figures for the IC50 on 20S proteasome and with RPMI-8226 were 4 nM and 14.7 nM, respectively.
Take `CC(C)C[C@H](NC(=O)C1(NC(=O)c2cc(C(F)(F)F)ccc2C(F)(F)F)CCCC1)B(O)O`: the IC50 at 20S proteasome was found to be 285 nM.
Regarding `CC(C)C[C@H](NC(=O)CNC(=O)c1cc(Cl)ccc1Cl)B1OC2C3CC(C(=O)O)C(O3)C2O1` (stereo partly drawn), the IC50 was determined as 6.3 nM at 20S proteasome and 4.4 nM in the data set with RPMI-8226. Also, the Stability was 14.06% in [1]; 83.62% in data set [2]; 82.49% in data set [3]; 78.47% in data set [4]; 83.15% in [5]. Besides, in data set [6], the remaining at 1 min is 21%. For the same compound, the remaining at 2 h in data set [7] was 23.9%. Also, the remaining at 4 h in data set [8] was 19.8%. For the same compound, the remaining at 8 h in data set [9] was 19.6%. Further, the remaining at 12 h in data set [10] was 19.9%.
For the compound `CC(C)C[C@H](NC(=O)CNC(=O)c1cc(C(F)(F)F)ccc1C(F)(F)F)B(O)O`, the 50% inhibitory concentration (IC50) was 5.2 nM on 20S proteasome and 18.4 nM with RPMI-8226.
For `CC(C)C[C@H](NC(=O)CNC(=O)c1cc(Cl)ccc1Cl)B1OC2C3OC(CC3C(=O)O)C2(C)O1` (stereo partly drawn), the IC50 at 20S proteasome was 5.2 nM; in the data set with RPMI-8226 it was 5 nM. The Stability in data set [1] is listed as 6.7%; in data set [2], 60.84%; in [3] it was 61.18%; in data set [4], 58.58%; in data set [5] it was 58.21%. Further, the remaining at 1 min in data set [6] was 7.36%. In addition, the remaining at 2 h in data set [7] was 12.9%. In addition, the remaining at 4 h in data set [8] is 12.4%. Further, the remaining at 8 h in data set [9] is 12.5%. For the same compound, the remaining at 12 h in [10] was 14.2%.
On to `CC(C)C[C@H](NC(=O)CNC(=O)c1cc(Cl)ccc1Cl)B1OC2CC3C(=O)NC(=O)C3CC2(C)O1` (stereo partly drawn), for which the results for the IC50 at 20S proteasome and in the data set with RPMI-8226 were 9.8 nM and 8.7 nM, respectively.
With `CC(C)C[C@H](NC(=O)CNC(=O)c1cc(Cl)ccc1Cl)B1OC2C3OC(C4C(=O)NC(=O)C34)C2(C)O1` (stereo partly drawn), the IC50 came out at 22.4 nM on 20S proteasome and 6.8 nM in the data set with RPMI-8226. Moreover, the Stability in [1] is given as 70.91%; in data set [2], 67.8%; in data set [3], 70.5%; in [4], 66.14%; in data set [5], 66.9%. Besides, the remaining at 1 min in [6] was 15%. Besides, in data set [7], the remaining at 2 h is 11.4%. In data set [8], the remaining at 4 h is 11.4%. Besides, the remaining at 8 h in [9] was 13.5%. For the same compound, the remaining at 12 h in data set [10] is 10.8%.
As to `Cc1cc(C(=O)NCC(=O)N[C@@H](CC(C)C)B(O)O)no1`, the IC50 at 20S proteasome stood at 124 nM.
For `CC(C)C[C@H](NC(=O)CNC(=O)c1cc(Cl)ccc1Cl)B1OC2C3OC(c4ccccc43)C2O1` (stereo partly drawn), the figures for the IC50 at 20S proteasome and in the data set with RPMI-8226 were 7.7 nM and 6.9 nM, respectively. Further, the Stability in [1] is recorded as 19.33%; in data set [2], 35.35%; in data set [3], 50.68%; in data set [4] it was 52.71%; in [5], 48.53%. For the same compound, the remaining at 1 min in [6] is 1.9%. In addition, the remaining at 2 h in [7] is 1.79%. Further, the remaining at 4 h in data set [8] was 1.18%. Further, the remaining at 8 h in data set [9] was 1.35%. Also, in data set [10], the remaining at 12 h was 1.33%.
With `CC(C)C[C@H](NC(=O)C(CC1CC1)NC(=O)c1cc(C(F)(F)F)ccc1C(F)(F)F)B(O)O` (stereo partly drawn), the IC50 on 20S proteasome is 5 nM; in the data set on RPMI-8226, 4.9 nM.
Taken in the same sequence, the figures for `CC(C)C[C@H](NC(=O)C(NC(=O)c1cc(C(F)(F)F)ccc1C(F)(F)F)C1CCCC1)B(O)O` (stereo partly drawn) were 6 nM and 6.9 nM.
In the case of `CC(C)C[C@H](NC(=O)CNC(=O)c1cc(F)ccc1F)B(O)O`, the IC50 at 20S proteasome turned out to be 20.6 nM; in the data set with RPMI-8226 it was 41.5 nM.
For the compound `CC(C)C[C@H](NC(=O)C1(NC(=O)c2cc(C(F)(F)F)ccc2C(F)(F)F)CC1)B(O)O`, the IC50 at 20S proteasome turned out to be 86.7 nM.
For `CC(C)C[C@H](NC(=O)CNC(=O)c1cc(Cl)ccc1Cl)B1OC2(C)CC3C(=O)NC(=O)C3CC2(C)O1` (stereo partly drawn), the figures for the IC50 at 20S proteasome and in the data set with RPMI-8226 were 8.4 nM and 7.5 nM, respectively. Also, the Stability in [1] is on record as 53.28%; in [2], 51.59%; in data set [3] it was 53.78%; in [4], 41.57%; in [5], 38.47%. Further, the remaining at 1 min in [6] is 5.4%. For the same compound, the remaining at 2 h in data set [7] was 7.58%. For the same compound, the remaining at 4 h in data set [8] is 9.23%. Moreover, the remaining at 8 h in [9] is 6.91%. In data set [10], the remaining at 12 h was 7.27%.
